Each structure is given as a SMILES string. Bounds are passed on as bounds.

Consider two compounds from US10464927B2, “2,4-disubstituted pyrimidines as CDK inhibitors” (Shanghai Xunhe Pharmaceutical Technology Co. Ltd., priority 2016, dated 2019).

The target in test [1] is CDK6 (Homo sapiens (Human), UniProt Q00534). Kind of test: CDK6 protein kinase activity, Caliper mobility shift assay. In kind it is biochemical. The settings on record: GST-CDK6(1-326 end), substrate Peptide FAM-P8, 28° C. for 3 h. How it is done:
(§1) Activity Assay: The CDK6 protein kinase activity was measured using the Caliper mobility shift assay (see J. Biomol. Screen, 2009, PP31). The test compound was dissolved in DMSO and diluted with a kinase buffer solution (20 mM HEPES-pH 7.5, 0.01% Triton X-100, 10 mM MgCl2, 2 mM DTT) and 5 μL of compound at 5-fold final concentration of reaction dissolved in 10% DMSO was added in a 384-well plate. The compound-free control well was 5 μL of 10% DMSO, and the no-activity control well was 5 μL of kinase buffer. 10 μL of a 2.5-fold diluted CDK6 enzyme solution (GST-CDK6(1-326 end)) was added and incubated at room temperature for 10 min, and then 10 μL of the 2.5-fold diluted substrate solution Peptide FAM-P8 was added. The reaction was stopped by adding 25 μL of stop solution after incubation at 28° C. for 3 h, and the conversion rate data was read on a Caliper EZ Reader II (Caliper Life Sciences) and the conversion rate was converted to inhibition rate data according to above method. Among them, the inhibition rate %=(max−conversion)/(max−min)×100%.

Test [2] addresses CDK4 (Homo sapiens (Human), UniProt P11802). Description: CDK4 protein kinase activity, Caliper mobility shift assay. Type of test: biochemical. The following applies: GST-CDK4(1-303 end), substrate Peptide FAM-P8, 28° C. for 3 h. On the procedure: as §1, with “activity assay:” for “Activity Assay:”, “CDK4” for “CDK6”, “(GST-CDK4(1-303” for “(GST-CDK6(1-326”

Chain of CDK6 (Q00534 whole entry): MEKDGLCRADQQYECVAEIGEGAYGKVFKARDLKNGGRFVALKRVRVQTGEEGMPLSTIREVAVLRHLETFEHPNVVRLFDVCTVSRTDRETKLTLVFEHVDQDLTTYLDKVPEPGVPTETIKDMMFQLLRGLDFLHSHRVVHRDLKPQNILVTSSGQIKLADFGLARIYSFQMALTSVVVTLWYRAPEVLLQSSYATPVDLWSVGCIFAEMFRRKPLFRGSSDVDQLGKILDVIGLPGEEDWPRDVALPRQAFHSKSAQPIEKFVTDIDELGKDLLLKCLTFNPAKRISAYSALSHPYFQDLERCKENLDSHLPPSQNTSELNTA
Chain of CDK6 (P30281 whole entry partner): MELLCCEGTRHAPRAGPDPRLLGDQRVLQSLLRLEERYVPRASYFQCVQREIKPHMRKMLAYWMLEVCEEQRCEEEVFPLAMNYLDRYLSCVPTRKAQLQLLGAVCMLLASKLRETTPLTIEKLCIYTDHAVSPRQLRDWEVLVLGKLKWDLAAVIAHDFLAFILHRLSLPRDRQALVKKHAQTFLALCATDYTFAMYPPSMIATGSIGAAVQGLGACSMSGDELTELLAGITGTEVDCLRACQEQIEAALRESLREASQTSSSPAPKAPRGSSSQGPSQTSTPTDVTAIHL
Chain of CDK4 (P11802 whole entry): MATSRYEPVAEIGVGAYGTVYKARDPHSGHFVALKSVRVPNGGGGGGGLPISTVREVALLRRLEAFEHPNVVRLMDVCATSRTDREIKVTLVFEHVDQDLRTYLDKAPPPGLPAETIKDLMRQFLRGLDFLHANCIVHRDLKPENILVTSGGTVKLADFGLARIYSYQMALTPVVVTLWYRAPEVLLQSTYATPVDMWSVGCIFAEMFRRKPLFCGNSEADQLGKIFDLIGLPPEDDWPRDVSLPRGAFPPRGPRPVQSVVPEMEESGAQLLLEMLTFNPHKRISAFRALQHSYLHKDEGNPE
Chain of CDK4 (P30281 whole entry partner): as the sequence (P30281 whole entry partner) above

What is called IC50 is the concentration that gives 50% inhibition. `CCN1CCN(Cc2ccc(Nc3ncc(F)c(-c4ncnc5c4c(C#N)cn5C)n3)nc2)CC1` [Compound I-42, N-(5-(4-ethylpiperazine-1-methyl)-pyridin-2-yl)-5-fluoro-4-(5-cyano-7-methyl-7H-pyrrolo[2,3-d]pyrimidin-4-yl)pyrimidin-2-amine]: the figures for the IC50 in test [1] and in test [2] were 20 to 100 nM and at most 20 nM, respectively.
On the same counts, the results for `CC(=O)c1cn(C2CCCC2)c2ccc(-c3nc(Nc4ccc(N5CCNCC5)cn4)ncc3F)cc12` [Compound I-3, N-(5-(piperazin-1-yl)-pyridin-2-yl)-5-fluoro-4-(1-cyclopentyl-3-acetyl-1H-indol-5-yl)pyrimidin-2-amine] are at most 20 nM and at most 20 nM.
